Results published in US20240044922A1, “DEVICE AND METHODS FOR MEASURING PLATELET-FIBRIN CLOT CONTRACTION KINETICS” (University of Kentucky Research Foundation, priority 2022, published 2024).
Several values for one entry are separate records, joined by “and”; a condition that tells them apart may be missing. Equal values may be shown once. Read-outs that look alike come from different tables or passages of the source. Bridge positions count the residues as written; N and C are the ends. Square brackets hold non-standard residues; d marks the D form. Peptide text beside a SMILES is read from it. hArg = N=C(N)NCCCC[C@H](N)C(=O)O; Mpa = O=C(O)CCS

Test system: washed mouse platelets
Assay: Clot contraction assay, time-lapse imaging of washed mouse platelets with thrombin, fibrinogen and CaCl2
Assay type: cell-based
[1] = CaCl2 0.1 mM, thrombin 20 mU/mL, fibrinogen 250 μg/mL
[2] = CaCl2 0.5 mM, thrombin 20 mU/mL, fibrinogen 250 μg/mL
[3] = CaCl2 1 mM, thrombin 20 mU/mL, fibrinogen 250 μg/mL
[4] = 1 mM EGTA, thrombin 20 mU/mL, fibrinogen 250 μg/mL
[5] = eptifibatide 50 μM, standard conditions
[6] = eptifibatide 100 μM, standard conditions
[7] = eptifibatide 150 μM, standard conditions

[Ca+2].[Cl-].[Cl-] [CaCl2]
AUC [1]: 3.78 AU
Average Velocity [1]: 0.98 %/min
Clot Contraction Extent [1]: 97.02%
Lag time [1]: 15.00 min
PHASE 1 % Contraction [1]: 2.91%
PHASE 1 Rate 1 [1]: 5.00 ×10^−3 %/min
PHASE 1 t1 [1]: 7.00 min
PHASE 2 % Contraction [1]: 29.63%
PHASE 2 Rate 2 [1]: 1.51 %/min
PHASE 2 t2 [1]: 27.33 min
PHASE 3 % Contraction [1]: 64.48%
PHASE 3 Rate 3 [1]: 1.51 ×10^−2 %/min
AUC [2]: 3.93 AU
Average Velocity [2]: 0.96 %/min
Clot Contraction Extent [2]: 95.36%
Lag time [2]: 15.67 min
PHASE 1 % Contraction [2]: 3.27%
PHASE 1 Rate 1 [2]: 4.67 ×10^−3 %/min
PHASE 1 t1 [2]: 8.33 min
PHASE 2 % Contraction [2]: 27.00%
PHASE 2 Rate 2 [2]: 1.43 %/min
PHASE 2 t2 [2]: 28.00 min
PHASE 3 % Contraction [2]: 65.48%
PHASE 3 Rate 3 [2]: 1.43 ×10^−2 %/min
AUC [3]: 3.69 AU
Average Velocity [3]: 0.99 %/min
Clot Contraction Extent [3]: 98.08%
Lag time [3]: 17.67 min
PHASE 1 % Contraction [3]: 5.50%
PHASE 1 Rate 1 [3]: 5.00 ×10^−3 %/min
PHASE 1 t1 [3]: 12.33 min
PHASE 2 % Contraction [3]: 31.17%
PHASE 2 Rate 2 [3]: 1.87 %/min
PHASE 2 t2 [3]: 30.00 min
PHASE 3 % Contraction [3]: 61.41%
PHASE 3 Rate 3 [3]: 1.87 ×10^−2 %/min
Differences in clot contraction (calcium between 0.1 and 1 mM): limited differences

O=C(O)CN(CCOCCOCCN(CC(=O)O)CC(=O)O)CC(=O)O [EGTA, reference compound]
AUC [4]: 7.83 AU
Average Velocity [4]: 0.51 %/min
Clot Contraction Extent [4]: 50.72%
Lag time [4]: 71.67 min
Effect on average contraction velocity (EGTA included): significantly reduced
Detection of the three phases of contraction (in the presence of EGTA): none of the three phases was detectible

N=C(N)NCCCC[C@@H]1NC(=O)CCSSC[C@@H](C(N)=O)NC(=O)[C@@H]2CCCN2C(=O)[C@H](Cc2c[nH]c3ccccc23)NC(=O)[C@H](CC(=O)O)NC(=O)CNC1=O [Eptifibatide, eptifibatide, reference compound] ([Mpa][hArg]GDWPC-NH2; disulfide 1-7)
AUC: 5.51 AU and 6.76 AU and 6.84 AU
Average Velocity [5]: 0.91 %/min
Clot Contraction Extent [5]: 89.56%
Lag time [5]: 29.33 min
PHASE 1 % Contraction [5]: 5.36%
PHASE 1 Rate 1 [5]: 3.93 ×10^−3 %/min
PHASE 1 t1 [5]: 14.33 min
PHASE 2 % Contraction [5]: 32.14%
PHASE 2 Rate 2 [5]: 1.96 %/min
PHASE 2 t2 [5]: 43.00 min
PHASE 3 % Contraction [5]: 52.91%
PHASE 3 Rate 3 [5]: 3.83 ×10^−2 %/min
Average Velocity [6]: 0.74 %/min
Clot Contraction Extent [6]: 73.02%
Lag time [6]: 46.67 min
PHASE 1 % Contraction [6]: 9.24%
PHASE 1 Rate 1 [6]: 4.00 ×10^−3 %/min
PHASE 1 t1 [6]: 26.00 min
PHASE 2 % Contraction [6]: 20.75%
PHASE 2 Rate 2 [6]: 1.08 %/min
PHASE 2 t2 [6]: 52.00 min
PHASE 3 % Contraction [6]: 43.03%
PHASE 3 Rate 3 [6]: 2.20 ×10^−2 %/min
Detection of the three phases of contraction (eptifibatide 150 μM): none of the three phases were detectible
Average Velocity [7]: 0.67 %/min
Clot Contraction Extent [7]: 66.08%
Lag time [7]: 50 min
Effect on average velocity of contraction (eptifibatide 50 to 150 μM): dose-dependent decrease
Effect on extent of contraction (eptifibatide 50 to 150 μM): dose-dependent decrease
Increase in lag time (eptifibatide 50 to 150 μM): ~4 fold
